We go through 25 compounds from PubChem BioAssay (NCI).

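These data come from cells grown in 96-well plates and exposed to compound for 48 hours at five concentrations. GI50 = concentration required for 50% inhibition of growth. TGI: total growth inhibition.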

One assay deals with MDA-MB-435. Briefly: NCI tumour cell line growth inhibition, 48 h.
Compound `O=P(c1ccccc1)(c1ccccc1)N1O[C@@H](c2ccccc2)C=C[C@H]1c1ccccc1` came in with a TGI of 18.7 µM.

With `CC(C)(C)NC(=O)/C(=C\Sc1ccccc1)c1ccc2c(c1)OCO2`, the TGI worked out at 47.7 µM.

`COC(=O)[C@]12CC[C@H]3CN(C(=O)OCc4ccccc4)[C@H]([C@H]31)[C@H](c1ccco1)N2S(=O)(=O)c1ccc(C)cc1` came in with a TGI of 67.3 µM.

Take `O=C1C[C@H](Sc2ccccc2)C2(OCCO2)[C@@H](Sc2ccccc2)C1`: the TGI amounted to 7.97 µM.

In turn, `CCCNC(=O)CCC(C)[C@H]1CCC2C3C(C[C@H](OC(C)=O)[C@@]21C)[C@@]1(C)CCC2(C[C@H]1C[C@H]3OC(C)=O)OOC1(CCC(C)CC1)OO2` (stereo not given in full) gave a TGI of 39.5 µM.

The compound `CCN(C(=S)N[C@@H](Cc1ccccc1)C(=O)N[C@@H](CC(C)C)C(=O)OC)c1ccccc1` yielded a TGI of over 100 µM.

As to `CCCn1c(CN(Cc2nc3ccccc3n2CCC)Cc2nc3ccccc3n2CCC)nc2ccccc21`, the TGI is 15.3 µM.

The compound `COc1cc(NS(C)(=O)=O)ccc1N1Cc2cnc3ccc4[nH]c(C)cc1c4c23` came in with a TGI of 50.1 µM.

On to `CC12CC(=O)C3C(C(=O)C1)C32C` (stereo not given), for which the TGI is over 100 µM.

Consider `CC(=O)N/N=C1\NC(=O)C[C@H]2[C@@H]3CC=C4C[C@@H](OC(C)=O)CC[C@]4(C)[C@H]3CC[C@]12C`, for which the TGI was over 100 µM.

`C=C[C@@H]1C(CO)=CCC2[C@H]1CCC1C(C)(C)C(=O)CC[C@]21C` (stereo not given in full) had a TGI of over 100 µM.

`COc1ccc2cc3c4cc5c(cc4cc[n+]3cc2c1OC)OCO5`: the TGI amounted to 22.9 µM.

The compound `C/C(CC1C2CCCC1C2)=N\NC(N)=O` (stereo not given) gave a TGI of over 100 µM.

On to `O=c1oc(-c2ccc(O)c(O)c2)cc2cccc(O)c12`, for which the TGI amounted to 60.3 µM.

In the case of `COc1cc2c(cc1-c1c(C)noc1C)cc(C)c(=O)n2Cc1ccccn1`, the GI50 is 1.25 µM and the TGI was 4.33 µM.

With `N#CC(C#N)=CNC(=S)c1ccncc1`, the TGI was over 100 µM.

With `C1=CC2=CC=CC3c4nc5ccc6ccccc6c5nc4C(=C1)C23` (stereo not given), the TGI is over 100 µM.

On to `COc1ccc(C2(CC(C)O)SCCCS2)cc1` (stereo not given), for which the TGI was over 100 µM.

For the compound `Clc1ccc(-c2nn3c(-c4ccncc4)nnc3s2)cc1`, the TGI is over 100 µM.

Compound `COc1ccc(C(OCC2OC(n3cc(C)c(=O)[nH]c3=O)CC2n2cc(Cn3cc(F)c(=O)[nH]c3=O)nn2)(c2ccccc2)c2ccccc2)cc1` (stereo not given) gave a TGI of 3.94 µM.

`O=[N+]([O-])/C(C(Cl)=C(Cl)Cl)=C(\Nc1cccc2cccnc12)SCc1ccccc1`: the TGI is 37.7 µM.

Turning to `Oc1ccccc1/C=N/c1nc2cc3sc(/N=C/c4ccccc4O)nc3cc2s1`, the TGI was over 100 µM.

`CCCCC1c2c([nH]c3ccccc23)C2C(=O)N(c3ccc(OC)cc3)C(=O)C2C1CCC` (stereo not given) displayed a TGI of 4.29 µM.

In turn, `CCN(CC)CCOc1ccc(N2C(=O)c3cc(OC)c(OC)cc3C2=O)cc1` gave a TGI of over 100 µM.

Turning to `C(=N\NC1=NCCCN1)/c1ccc2ccccc2c1`, the TGI worked out at 18.7 µM.

The test system of another assay is SK-OV-3 ovarian. Briefly: NCI tumour cell line growth inhibition, 48 h.
For the compound `O=P(c1ccccc1)(c1ccccc1)N1O[C@@H](c2ccccc2)C=C[C@H]1c1ccccc1`, the TGI amounted to 33.4 µM.

`CC(C)(C)NC(=O)/C(=C\Sc1ccccc1)c1ccc2c(c1)OCO2` had a TGI of over 100 µM.

On to `COC(=O)[C@]12CC[C@H]3CN(C(=O)OCc4ccccc4)[C@H]([C@H]31)[C@H](c1ccco1)N2S(=O)(=O)c1ccc(C)cc1`, for which the TGI is over 100 µM.

For `O=C1C[C@H](Sc2ccccc2)C2(OCCO2)[C@@H](Sc2ccccc2)C1`, the TGI is 24.7 µM.

In turn, `CCCNC(=O)CCC(C)[C@H]1CCC2C3C(C[C@H](OC(C)=O)[C@@]21C)[C@@]1(C)CCC2(C[C@H]1C[C@H]3OC(C)=O)OOC1(CCC(C)CC1)OO2` (stereo not given in full) yielded a TGI of over 100 µM.

The compound `CCN(C(=S)N[C@@H](Cc1ccccc1)C(=O)N[C@@H](CC(C)C)C(=O)OC)c1ccccc1` yielded a TGI of over 100 µM.

`CCCn1c(CN(Cc2nc3ccccc3n2CCC)Cc2nc3ccccc3n2CCC)nc2ccccc21` showed a TGI of over 100 µM.

Take `COc1cc(NS(C)(=O)=O)ccc1N1Cc2cnc3ccc4[nH]c(C)cc1c4c23`: the TGI was over 100 µM.

In turn, `CC12CC(=O)C3C(C(=O)C1)C32C` (stereo not given) returned a TGI of over 100 µM.

`CC(=O)N/N=C1\NC(=O)C[C@H]2[C@@H]3CC=C4C[C@@H](OC(C)=O)CC[C@]4(C)[C@H]3CC[C@]12C` had a TGI of 53.7 µM.

Compound `C=C[C@@H]1C(CO)=CCC2[C@H]1CCC1C(C)(C)C(=O)CC[C@]21C` (stereo not given in full) registered a TGI of over 100 µM.

As to `COc1ccc2cc3c4cc5c(cc4cc[n+]3cc2c1OC)OCO5`, the TGI was over 84.9 µM.

`C/C(CC1C2CCCC1C2)=N\NC(N)=O` (stereo not given) returned a TGI of over 100 µM.

Compound `O=c1oc(-c2ccc(O)c(O)c2)cc2cccc(O)c12` registered a TGI of 74.9 µM.

Regarding `COc1cc2c(cc1-c1c(C)noc1C)cc(C)c(=O)n2Cc1ccccn1`, the GI50 is 0.554 µM and the TGI is 7.82 µM.

In turn, `N#CC(C#N)=CNC(=S)c1ccncc1` showed a TGI of over 100 µM.

`C1=CC2=CC=CC3c4nc5ccc6ccccc6c5nc4C(=C1)C23` (stereo not given) had a TGI of over 100 µM.

`COc1ccc(C2(CC(C)O)SCCCS2)cc1` (stereo not given) showed a TGI of over 100 µM.

`Clc1ccc(-c2nn3c(-c4ccncc4)nnc3s2)cc1` came in with a TGI of 84.9 µM.

For `COc1ccc(C(OCC2OC(n3cc(C)c(=O)[nH]c3=O)CC2n2cc(Cn3cc(F)c(=O)[nH]c3=O)nn2)(c2ccccc2)c2ccccc2)cc1` (stereo not given), the TGI came out at 22.9 µM.

In turn, `O=[N+]([O-])/C(C(Cl)=C(Cl)Cl)=C(\Nc1cccc2cccnc12)SCc1ccccc1` registered a TGI of 43.4 µM.

In turn, `Oc1ccccc1/C=N/c1nc2cc3sc(/N=C/c4ccccc4O)nc3cc2s1` came in with a TGI of over 100 µM.

`CCCCC1c2c([nH]c3ccccc23)C2C(=O)N(c3ccc(OC)cc3)C(=O)C2C1CCC` (stereo not given) registered a TGI of over 10 µM.

Compound `CCN(CC)CCOc1ccc(N2C(=O)c3cc(OC)c(OC)cc3C2=O)cc1` displayed a TGI of over 100 µM.

In the case of `C(=N\NC1=NCCCN1)/c1ccc2ccccc2c1`, the TGI amounted to 23.6 µM.

In another assay the test system is COLO 205 colon. In words: NCI tumour cell line growth inhibition, 48 h.
Compound `O=P(c1ccccc1)(c1ccccc1)N1O[C@@H](c2ccccc2)C=C[C@H]1c1ccccc1` registered a TGI of 31.2 µM.

For `CC(C)(C)NC(=O)/C(=C\Sc1ccccc1)c1ccc2c(c1)OCO2`, the TGI came to 53.4 µM.

`COC(=O)[C@]12CC[C@H]3CN(C(=O)OCc4ccccc4)[C@H]([C@H]31)[C@H](c1ccco1)N2S(=O)(=O)c1ccc(C)cc1`: the TGI amounted to 38.4 µM.

`O=C1C[C@H](Sc2ccccc2)C2(OCCO2)[C@@H](Sc2ccccc2)C1` displayed a TGI of 15.4 µM.

For the compound `CCCNC(=O)CCC(C)[C@H]1CCC2C3C(C[C@H](OC(C)=O)[C@@]21C)[C@@]1(C)CCC2(C[C@H]1C[C@H]3OC(C)=O)OOC1(CCC(C)CC1)OO2` (stereo not given in full), the TGI turned out to be 29.9 µM.

With `CCN(C(=S)N[C@@H](Cc1ccccc1)C(=O)N[C@@H](CC(C)C)C(=O)OC)c1ccccc1`, the TGI was over 100 µM.

The compound `CCCn1c(CN(Cc2nc3ccccc3n2CCC)Cc2nc3ccccc3n2CCC)nc2ccccc21` had a TGI of 13 µM.

For `COc1cc(NS(C)(=O)=O)ccc1N1Cc2cnc3ccc4[nH]c(C)cc1c4c23`, the TGI is over 100 µM.

As for `CC12CC(=O)C3C(C(=O)C1)C32C` (stereo not given), the TGI was over 100 µM.

The compound `CC(=O)N/N=C1\NC(=O)C[C@H]2[C@@H]3CC=C4C[C@@H](OC(C)=O)CC[C@]4(C)[C@H]3CC[C@]12C` showed a TGI of over 100 µM.

`C=C[C@@H]1C(CO)=CCC2[C@H]1CCC1C(C)(C)C(=O)CC[C@]21C` (stereo not given in full) yielded a TGI of over 100 µM.

In turn, `COc1ccc2cc3c4cc5c(cc4cc[n+]3cc2c1OC)OCO5` came in with a TGI of 6.73 µM.

`C/C(CC1C2CCCC1C2)=N\NC(N)=O` (stereo not given) had a TGI of over 100 µM.
